Measured values from patent US4772603A, “Method for treating congestive heart failure, angina, occlusive peripheral vascular disease or cerebral vascular disease in mammals” (Beecham Group p.l.c., priority 1984, dated 1988).
Where two headings read alike, the source gives them in different places.

How the values were obtained:
Rat isolated portal vein = test: Rat isolated portal vein: inhibition of spontaneous contractions and of contractions due to added calcium; design: species or system rat (male Sprague Dawley); settings: for IC50: Rattus norvegicus, 0.25 h, 15 min contact time
Method: (1) Rat isolated portal vein. Male Sprague Dawley rats (250-350 g) were killed by cervical dislocation. Portal veins (2-3 cm in length) were set up under 0.8-1 g tension in a 10 ml organ bath containing Krebs-Henseleit solution, at 37° C., of the following composition (mM): NaCl 118, NaHCO3 25, glucose 5, KH2 PO4 1.18, KCl 4.69, MgSO4 0.59, CaCl2 ·H2 O 1.87. The tissue was aerated with a 95% oxygen and 5% carbon dioxide mixture. Isometric tension was recorded using a Devices strain gauge and recorder. Each preparation was allowed 1h to equilibrate before the addition of test compound. The ability of a compound to inhibit the contractions due to added calcium (3 mM CaCl2) was determined in tissues bathed in Krebs-Henseleit solution containing 0.05 mM CaCl2 (in order to reduce spontaneous contractions). Then percentage inhibition (mean±s.e.m.; 6-9 tissues) of the amplitude of the spontaneous contractions, and contractions due to added calcium, was determined after 15 min contact time with test compound.
IC50 is concentration of compound reducing contractions by 50%; parenthesis indicate 95% fiducial limits.

[1] = tested on: Rabbit isolated mesenteric artery; test: Rabbit isolated mesenteric artery: inhibition of contractions due to 30 and 90 mM KCl; design: species or system rabbit (male New Zealand White)
Method: (2) Rabbit isolated mesenteric artery. Mesenteric arteries (3 mm rings) were removed from male New Zealand White rabbits and mounted, at a resting tension of 1.5-2.0 g, in a 10 ml organ bath containing a Ringer solution, at 37° C., of the following composition (mM): NaCl 120.8; KCl 5.9; CaCl2 2.5; MgCl2 1.2; HEPES 5.8; glucose 11.5. The bathing solution was bubbled with a 95% oxygen and 5% carbon dioxide mixture. Each preparation was allowed 1-11/2 h to equilibrate before the addition of either 30 or 90 mM KCl to contract the tissue. The ability of test compound to relax the sustained contraction due to KCl was determined by assessing the % reduction (mean±s.e.m.; 4-9 tissues) produced by varying concentrations of test compound.
IC50 is the concentration of compound 1 halving the contraction due to KCl; parenthesis indicate 95% fiducial limits.

hypoxic skeletal muscle = test: Effect of compounds on skeletal muscle oxygen tension in the rat (with reduction in mean arterial blood pressure); assay type: in vivo; settings: for CHANGE IN PO2 (average change in muscle PO2 produced by treatment) / REDUCTION IN MABP (Mean Arterial Blood Pressure): mean±S.D., 6 rats/treatment; for oxygen tension (PO2) in hypoxic skeletal muscle: at approximately a hypotensive dose
Text: Values are mean±S.D.; 6 rats/treatment
MABP=Mean Arterial Blood Pressure
Change in PO2 =the average change in muscle PO2 produced by treatment

| SMILES | IC50 (Rat isolated portal vein; contractions due to added calcium (3 mM CaCl2), 0.05 mM CaCl2 Krebs-Henseleit, 95% fiducial limits (0.87-3.5), read-out: IC50 Ca^2+ (3 mM) (concentration reducing contractions by 50%)) [nM] | IC50 (Rat isolated portal vein; spontaneous contractions, 95% fiducial limits (0.67-7.8), read-out: IC50 Spontaneous (concentration reducing contractions by 50%)) [nM] | inhibitor of spontaneous contractions and of those due to added calcium (comparison in words) (Rat isolated portal vein; spontaneous versus added calcium contractions) | antagonism of contractions due to a partially / fully depolarising concentration of potassium ([1]; 30 mM (partially) and 90 mM (fully depolarising) KCl) | IC50 ([1]; Oryctolagus cuniculus, read-out: IC50 90 mM KCl (concentration halving the contraction due to KCl)) [nM] | effect against a high concentration of KCl ([1]; high KCl (90 mM)) | CHANGE IN PO2 (average change in muscle PO2 produced by treatment) (hypoxic skeletal muscle; 0.3 mg/kg intraduodenally) | REDUCTION IN MABP (Mean Arterial Blood Pressure) (hypoxic skeletal muscle; 0.3 mg/kg intraduodenally) [MMHG] | oxygen tension (PO2) in hypoxic skeletal muscle (hypoxic skeletal muscle) | CHANGE IN PO2 (average change in muscle PO2 produced by treatment) (hypoxic skeletal muscle; 1.0 mg/kg intraduodenally) | REDUCTION IN MABP (Mean Arterial Blood Pressure) (hypoxic skeletal muscle; 1.0 mg/kg intraduodenally) [MMHG] |
| --- | --- | --- | --- | --- | --- | --- | --- | --- | --- | --- | --- |
| CC1(C)Oc2ccc(C#N)cc2[C@@H](N2CCCC2=O)[C@@H]1O (relative stereo) [Compound 1, 6-cyano-3,4-dihydro-2,2-dimethyl-trans-4-(2-oxo-1-pyrrolidinyl)-2H-benzo[b]pyran-3-ol] | 150 | 120 | equipotent | antagonises the contractions due to a partially, but not a fully, depolarising concentration of potassium | > 10000 | effectiveness | +8.7 ± 2.3 TORR | 44 ± 4 | large increase | – | – |
| CCN(C(C)=O)[C@@H]1c2cc(C#N)ccc2OC(C)(C)[C@H]1O (relative stereo) [Compound 2, trans-4-N-acetylethylamino-6-cyano-3,4-dihydro-2,2-dimethyl-2H-benzo[b]pyran-3-ol] | – | – | – | – | – | – | – | – | large increase | +8.2 ± 3.7 TORR | 36 ± 4 |
